Where two headings read alike, the source gives them in different places.
Columns and labels:
[1] = target: T1, hSARM1 (Homo sapiens, UniProt Q6SZW1); assay: Human SARM1 activity measurement in HEK293 cells transiently transfected with ΔN-hSARM1 (PC6 fluorescent probe); format: cell-based; parameters: expressed in transfected cells; host or cells: HEK293, pcDNA3 expression vector
T1 sequence (Q6SZW1 28-724): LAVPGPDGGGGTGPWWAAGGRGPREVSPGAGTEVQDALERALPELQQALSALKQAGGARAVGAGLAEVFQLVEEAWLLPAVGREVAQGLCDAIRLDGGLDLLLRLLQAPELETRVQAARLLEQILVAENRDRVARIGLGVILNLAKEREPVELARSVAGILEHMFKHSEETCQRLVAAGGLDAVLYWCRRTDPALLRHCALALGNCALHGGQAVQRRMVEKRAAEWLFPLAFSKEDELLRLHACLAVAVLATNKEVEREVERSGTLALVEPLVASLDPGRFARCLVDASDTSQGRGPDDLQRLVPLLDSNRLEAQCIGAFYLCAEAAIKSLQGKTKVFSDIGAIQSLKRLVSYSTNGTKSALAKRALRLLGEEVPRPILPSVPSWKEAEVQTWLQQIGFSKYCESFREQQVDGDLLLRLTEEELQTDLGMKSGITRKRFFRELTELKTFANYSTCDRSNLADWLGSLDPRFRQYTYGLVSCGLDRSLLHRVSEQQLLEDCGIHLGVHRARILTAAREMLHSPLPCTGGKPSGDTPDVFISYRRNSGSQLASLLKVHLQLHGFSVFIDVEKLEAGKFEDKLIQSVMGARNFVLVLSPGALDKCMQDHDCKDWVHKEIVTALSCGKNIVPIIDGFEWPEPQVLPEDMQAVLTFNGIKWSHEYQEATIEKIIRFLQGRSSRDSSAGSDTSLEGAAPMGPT
Outline: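 HEK293 cells in nicotinamide-free DMEM with 5 μM nicotinamide, transiently transfected with mitochondrial-targeting-deleted ΔN-hSARM1; PC6 base-exchange fluorescent probe (50 μM) plus compound (30 μM) added ~8 h post-transfection. Fluorescence (ex 405/em 525 nm) read ~48 h from transfection; inhibition % versus transfected DMSO control, untransfected background subtracted.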

[2] = system: primary cultured cells of mouse fetus-derived dorsal root ganglia (DRGs); assay: Suppression of axonal degeneration after axotomy in DRG explant culture; format: cell-based; conditions: minimum concentration at which axonal degeneration was suppressed (DI 0.3 or less), 24 hours after axotomy; for minimal effective concentration: Mus musculus, read-out: Evaluation on protection against degeneration
Outline: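 Embryonic ICR mouse DRG explants were cultured 7–8 days in nicotinamide-free neuronal medium with NGF, then axotomized by removing the cell bodies. Compound (100 pM–10 µM final, 0.1% DMSO) was added within 30 min, and neurites were imaged 24 h later. The result is the lowest concentration giving degeneration index ≤0.3.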

[3] = target: T2, nicotinamide phosphoribosyl transferase (NAMPT) (Homo sapiens, UniProt P43490); assay: NAMPT activity measurement (NMN fluorescence detection); format: biochemical; conditions: NAMPT recombinant protein, 10 µM Nam; for IC50: read-out: Evaluation on NAMPT inhibitory
T2 construct: purchased Medical & Biological Laboratories Co., Ltd. (MBL)
T2 sequence (P43490 whole entry, species assumed): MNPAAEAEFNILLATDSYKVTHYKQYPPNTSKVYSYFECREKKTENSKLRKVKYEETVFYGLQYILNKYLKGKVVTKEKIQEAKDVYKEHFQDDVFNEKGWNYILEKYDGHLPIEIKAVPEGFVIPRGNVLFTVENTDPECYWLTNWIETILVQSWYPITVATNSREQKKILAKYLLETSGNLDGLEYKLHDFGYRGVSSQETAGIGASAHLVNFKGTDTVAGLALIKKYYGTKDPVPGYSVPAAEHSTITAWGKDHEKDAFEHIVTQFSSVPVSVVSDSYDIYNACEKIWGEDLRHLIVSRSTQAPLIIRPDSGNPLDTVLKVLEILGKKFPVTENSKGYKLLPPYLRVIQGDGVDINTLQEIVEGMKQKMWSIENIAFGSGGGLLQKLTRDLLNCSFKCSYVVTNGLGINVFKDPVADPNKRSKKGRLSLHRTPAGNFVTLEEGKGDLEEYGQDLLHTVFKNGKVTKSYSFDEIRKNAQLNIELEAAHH
Outline: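 Recombinant NAMPT reacted with 10 µM Nam, 0.5 µM PRPP, 2 µM ATP in Tris pH 7.4 buffer with MgCl2, DTT, BSA; product NMN quantified by fluorescence (ex 421/em 480 nm) after derivatization with 2-acetylbenzofuran. Compounds at 3 nM–10 µM; control-normalized signal used for IC50.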

[4] = inhibition rate, compound 30 µM, PC6 50 µM, HEK293 cells expressing ΔN-hSARM1, approximately 48 hours from transfection, read-out: Evaluation on hSARM1 inhibitory

SMILES	inhibition at 30 µM [1, 4] [%]	minimal effective concentration [2] [µM]	Evaluation on NAMPT inhibitory [3]	IC50 [3] [nM]	Evaluation on protection against degeneration [2]	inhibition at 30 µM ([1]; HEK293, read-out: Evaluation on hSARM1 inhibitory) [%]
O=C(NCc1cccc(CNC(=O)c2cccnc2)n1)c1cccnc1 [Compound 150]	> 25	0.1 to 1	○			
O=C(NCc1ccc(NC(=O)c2cccc(F)c2)nc1)c1cccnc1 [Compound 116]	> 75	≤ 0.01	○			
CC(C)(C)CC(=O)Nc1ccc(CNC(=O)c2cccnc2)cn1 [Compound 182]	> 75	≤ 0.01		≥ 100		
Cc1ccc(C(=O)Nc2ccc(CNC(=O)c3cccnc3)cn2)cc1 [Compound 119]	> 75	≤ 0.01	○			
O=C(NCc1ccc(CNC(=O)c2cccnc2)nc1)c1cccnc1 [Compound 146]	> 50	0.01 to 0.1	○			
O=C(NCc1ccc(NC(=O)c2cccnc2)c(Cl)c1)c1cccnc1 [Compound 112]	> 10		○		B (0.01 µM < B ≤ 0.1 µM)	
O=C(/C=C/c1ccc(OC(F)(F)F)cc1)Nc1ccc(CNC(=O)c2cccnc2)cn1 [Compound 168]	> 50	≤ 0.01	○			
CC(=O)NCc1ccc(OCCOCCNC(=O)/C=C/c2cccnc2)cc1 [compound 22]	> 75	≤ 0.01		≥ 100		
COc1ccc(/C=C/C(=O)Nc2ccc(CNC(=O)c3cccnc3)cn2)cc1 [Compound 180]	> 75	≤ 0.01		≥ 100		
O=C(NCCCCCCNC(=O)c1cncc(O)c1)c1cccnc1 [compound 57]	> 75	0.01 to 0.1		≥ 100		
O=C(NCCCCCCN1CCN(CCOC(=O)c2cccnc2)CC1)c1cccnc1 [compound 95]	> 50	≤ 0.01	○			
NCCCOCCOCCCNC(=O)c1cccnc1 [compound 106]	> 25	≤ 0.01	○			
O=C(NCc1cccc(CNC(=O)c2cccnc2)n1)c1ccncc1 [Compound 151]	> 25	0.1 to 1	○			
O=C(NCc1ccc(NC(=O)c2cccc(Cl)c2)nc1)c1cccnc1 [Compound 132]	> 75	≤ 0.01	○			
O=C(NCc1ccc(NC(=O)c2cc(F)cc(F)c2)nc1)c1cccnc1 [Compound 138]	> 75	≤ 0.01	○			
Cc1ccc(C(=O)Nc2ccc(CNC(=O)c3cccnc3)cn2)c(C)c1 [Compound 135]			○		A (A ≤ 0.01 µM)	> 75
O=C(NCc1ccc(NC(=O)C2CCOCC2)nc1)c1cccnc1 [Compound 114]	> 75	≤ 0.01	○			

SMILES	inhibition at 30 µM [1, 4] [%]	minimal effective concentration [2] [µM]	Evaluation on NAMPT inhibitory [3]	IC50 [3] [nM]	Evaluation on protection against degeneration [2]	inhibition at 30 µM ([1]; HEK293, read-out: Evaluation on hSARM1 inhibitory) [%]
O=C(NCCCCCCCCOCCOCCO)c1cccnc1 [compound 6]	> 75	≤ 0.01		≥ 100		
CC(C)CCC(=O)Nc1ccc(CNC(=O)c2cccnc2)cn1 [Compound 164]	> 75	≤ 0.01		≥ 100		
CC(=O)NCc1ccc(OCCCNC(=O)c2cccnc2)cc1 [compound 20]	> 75	0.01 to 0.1	○			
O=C(NCCCOCCOCCCNC(=O)c1cnc2ccccc2c1)c1cccnc1 [Compound 185]	> 25	0.1 to 1	○			
O=C(/C=C/c1cccnc1)Nc1ccc(CNC(=O)c2ccccc2)cc1 [compound 64]	> 75	≤ 0.01		≥ 100		
O=C(NCc1ccc(NC(=O)c2ccc(-c3ccccc3)cc2)nc1)c1cccnc1 [Compound 128]	> 75	≤ 0.01	○			
O=C(NCc1ccc(NC(=O)c2ccc(F)c(F)c2)nc1)c1cccnc1 [Compound 137]	> 75	≤ 0.01	○			
N#Cc1ccc(CC(=O)Nc2ccc(CNC(=O)c3cccnc3)cn2)cc1 [Compound 154]	> 75	≤ 0.01		≥ 100		
CCc1ccc(C(=O)Nc2ccc(CNC(=O)c3cccnc3)cn2)cc1 [Compound 131]	> 75	≤ 0.01	○			
O=C(/C=C/c1cccnc1)NCCCNC(=O)/C=C/c1cccnc1 [compound 39]	> 75	≤ 0.01	○			
COCOc1cccc(OCCCNC(=O)c2cccnc2)c1 [compound 25]	> 75		○		B (0.01 µM < B ≤ 0.1 µM)	
COc1cccc(OCCOCCNC(=O)/C=C/c2cccnc2)c1 [compound 28]	> 75	≤ 0.01		≥ 100		
N#Cc1ccc(CCC(=O)Nc2ccc(CNC(=O)c3cccnc3)cn2)cc1 [Compound 173]	> 75	0.01 to 0.1	○			
N#Cc1ccc(C(=O)Nc2ccc(CNC(=O)c3cccnc3)cn2)cc1 [compound 73]	> 50	≤ 0.01	○			
CCCC(=O)Nc1ccc(CNC(=O)c2cccnc2)cn1 [Compound 158]	> 25	≤ 0.01	○			
O=C(/C=C/c1ccc(C(F)(F)F)cc1)Nc1ccc(CNC(=O)c2cccnc2)cn1 [Compound 167]	> 75	≤ 0.01	○			
CC(C)(C)OC(=O)NCCOCCOCCNC(=O)c1cccnc1 [compound 71]	> 50		○		A (A ≤ 0.01 µM)	

Source: patent EP4793271A1, “NEUROPROTECTIVE AGENT” (National Center of Neurology and Psychiatry, priority 2023, dated 2025)
